Results reported in ChEMBL document CHEMBL3868640, “1,2,4-Triazolidine-3-thiones as Narrow Spectrum Antibiotics against Multidrug-Resistant Acinetobacter baumannii” (ACS Med Chem Lett, 2017).
≈ marks a conversion by molar mass, not a printed value.

Key:
Acinetobacter baumannii [1] = assay: Antimicrobial activity against extensively drug-resistant Acinetobacter baumannii AB5075 after 16 hrs by microbroth dilution method; assay type: functional; conditions: AB5075, 16 h
Acinetobacter baumannii [2] = assay: Bactericidal activity against extensively drug-resistant Acinetobacter baumannii AB5075 assessed as log reduction in bacterial count at 4 to 16 ug/ml measured up to 24 hrs by time kill assay; assay type: functional
Acinetobacter baumannii [3] = assay: Antimicrobial activity against multi drug-resistant Acinetobacter baumannii AB3638 after 16 hrs by microbroth dilution method; assay type: functional; conditions: AB3638, 16 h
Klebsiella pneumoniae = assay: Antimicrobial activity against Klebsiella pneumoniae after 16 hrs by microbroth dilution method; assay type: functional
Acinetobacter baumannii [4] = assay: Antimicrobial activity against multi drug-resistant Acinetobacter baumannii BAA1605 after 16 hrs by microbroth dilution method; assay type: functional; conditions: BAA1605, 16 h
Acinetobacter baumannii [5] = assay: Antimicrobial activity against multi drug-resistant Acinetobacter baumannii AB4957 after 16 hrs by microbroth dilution method; assay type: functional; conditions: AB4957, 16 h
Escherichia coli = assay: Antimicrobial activity against Escherichia coli after 16 hrs by microbroth dilution method; assay type: functional
Acinetobacter baumannii [6] = assay: Antibacterial activity against Acinetobacter baumannii AB5075 infected in Galleria mellonella assessed as worm survival at 100 mg/kg after 3 days relative to control; assay type: functional; conditions: AB5075, 72 h
Acinetobacter baumannii [7] = assay: Antimicrobial activity against multi drug-resistant Acinetobacter baumannii AB4878 after 16 hrs by microbroth dilution method; assay type: functional; conditions: AB4878, 16 h
Acinetobacter baumannii [8] = assay: Antibacterial activity against Acinetobacter baumannii AB5075 infected in Galleria mellonella assessed as protection against bacterial infection by measuring survival of host at 50 mg/kg after 6 days relative to control; assay type: functional; conditions: AB5075, 144 h
Acinetobacter baumannii [9] = assay: Antibacterial activity against Acinetobacter baumannii AB5075 infected in Galleria mellonella assessed as worm survival at 50 mg/kg after 3 days relative to control; assay type: functional; conditions: AB5075, 72 h
[10] = Drug degradation in cation adjusted Mueller-Hinton broth after 16 hrs by liquid chromatography; assay type: physicochemical
[11] = Hemolytic activity against sheep RBC up to 512 ug/ml after 1 hr by UV spectrometric analysis; assay type: ADME, cell-based, Ovis aries; conditions: erythrocyte
[12] = Half life in cation adjusted Mueller-Hinton broth by liquid chromatography; assay type: physicochemical
Staphylococcus aureus = assay: Antimicrobial activity against methicillin-resistant Staphylococcus aureus after 16 hrs by microbroth dilution method; assay type: functional
Pseudomonas aeruginosa = assay: Antimicrobial activity against Pseudomonas aeruginosa after 16 hrs by microbroth dilution method; assay type: functional
Acinetobacter baumannii [13] = assay: Antibacterial activity against Acinetobacter baumannii AB5075 infected in Galleria mellonella assessed as protection against bacterial infection by measuring survival of host at 100 mg/kg after 6 days relative to control; assay type: functional; conditions: AB5075, 144 h
Acinetobacter baumannii [14] = assay: Antimicrobial activity against multi drug-resistant Acinetobacter baumannii AB3806 after 16 hrs by microbroth dilution method; assay type: functional; conditions: AB3806, 16 h
Acinetobacter baumannii [15] = assay: Antimicrobial activity against extensively drug-resistant Acinetobacter baumannii AB5075 in 0.02% linoleic acid supplemented media after 16 hrs by microbroth dilution method; assay type: functional; conditions: AB5075, 16 h
Acinetobacter baumannii [16] = assay: Antimicrobial activity against multi drug-resistant Acinetobacter baumannii AB3785 after 16 hrs by microbroth dilution method; assay type: functional; conditions: AB3785, 16 h

SMILES | MIC (Acinetobacter baumannii [1]) | further results
SC1=NC2(CCCCC2)NN1c1ccccc1 | 8 µg/mL (≈ 32.3 µM) | –
CCC1(CC)NC(=S)N(c2ccccc2)N1 | 8 µg/mL (≈ 34 µM) | –
CC1(C)NC(=S)N(c2ccccc2)N1 | 8 µg/mL (≈ 38.6 µM) | –
CC(C)C1(C)NC(=S)N(c2ccccc2)N1 (stereo unspecified) | 8 µg/mL (≈ 34 µM) | –
CCCCN1N(c2ccc(Cl)cc2)C(=S)NC1(C)C | > 128 µg/mL | –
CCC1NC(=S)N(c2ccccc2)N1 (stereo unspecified) | > 128 µg/mL | –
CCCC1(CC)NC(=S)N(c2ccccc2)N1 (stereo unspecified) | 32 µg/mL (≈ 128 µM) | –
CCC1(CC)NC(=S)N(c2ccccc2F)N1 | 32 µg/mL (≈ 126 µM) | –
CCC1(CC)NC(=S)N(c2cccc(Cl)c2)N1 | 8 µg/mL (≈ 29.7 µM) | –
CCC1(CC)NC(=S)N(c2ccc(F)cc2)N1 | 4 µg/mL (≈ 15.8 µM) | –
CCCC1NC(=S)N(c2ccccc2)N1 (stereo unspecified) | 64 µg/mL (≈ 289 µM) | –
CC1(C)NNC(=S)N1c1ccc(Cl)cc1 | > 128 µg/mL | –
CC1NC(=S)N(c2ccccc2)N1 (stereo unspecified) | > 128 µg/mL | –
CC1(c2ccccc2)NC(=S)N(c2ccccc2)N1 (stereo unspecified) | > 128 µg/mL | –
CC1(C)NC(=S)N(c2ccc(Cl)cc2)N1 | – | log reduction (Acinetobacter baumannii [2]): > 6 log10 CFU/mL; MIC (Acinetobacter baumannii [3]): 1 µg/mL (≈ 4.14 µM); MIC (Klebsiella pneumoniae): ≥ 128 µg/mL; MIC (Acinetobacter baumannii [4]): 2 µg/mL (≈ 8.27 µM); MIC (Acinetobacter baumannii [5]): 2 µg/mL (≈ 8.27 µM); MIC (Escherichia coli): ≥ 128 µg/mL; survival at 100 mg/kg (Acinetobacter baumannii [6]): 45%; MIC (Acinetobacter baumannii [7]): 2 µg/mL (≈ 8.27 µM); survival at 50 mg/kg (Acinetobacter baumannii [8]): 22%; survival at 50 mg/kg (Acinetobacter baumannii [9]): 42.5%; Stability [10]: Unstable; Activity [11]: Non-Toxic; half-life [12]: 2.5 h; MIC (Staphylococcus aureus): ≥ 128 µg/mL; MIC (Pseudomonas aeruginosa): ≥ 128 µg/mL; survival at 100 mg/kg (Acinetobacter baumannii [13]): 32%; MIC (Acinetobacter baumannii [14]): 1 µg/mL (≈ 4.14 µM); MIC (Acinetobacter baumannii [15]): > 128 µg/mL; MIC (Acinetobacter baumannii [16]): 1 µg/mL (≈ 4.14 µM)
S=C1NC2(CCCC2)NN1c1ccccc1 | 8 µg/mL (≈ 34.3 µM) | –
CCC1(C(C)C)NC(=S)N(c2ccccc2)N1 (stereo unspecified) | 32 µg/mL (≈ 128 µM) | –
CCC1(CC)NC(=S)N(c2ccc(C#N)cc2)N1 | > 128 µg/mL | –

SMILES | MIC (Acinetobacter baumannii [1]) | further results
CCC1(CC)NC(=S)N(c2ccccc2Cl)N1 | 128 µg/mL (≈ 474 µM) | –
CCC1(CC)NC(=S)N(c2ccc(C(C)C)cc2)N1 | > 128 µg/mL | –
CCCC1(CCC)NC(=S)N(c2ccccc2)N1 | 32 µg/mL (≈ 121 µM) | –
CCC1(CC)NC(=S)N(c2ccc(Cl)cc2)N1 | 2 µg/mL (≈ 7.41 µM) | MIC (Acinetobacter baumannii [3]): 4 µg/mL (≈ 14.8 µM); MIC (Acinetobacter baumannii [4]): 4 µg/mL (≈ 14.8 µM); MIC (Acinetobacter baumannii [5]): 4 µg/mL (≈ 14.8 µM); MIC (Acinetobacter baumannii [7]): 4 µg/mL (≈ 14.8 µM); MIC (Acinetobacter baumannii [14]): 4 µg/mL (≈ 14.8 µM); MIC (Acinetobacter baumannii [16]): 4 µg/mL (≈ 14.8 µM)
CCC1(CC)NC(=S)N(c2cc(F)cc(F)c2)N1 | > 128 µg/mL | –
CCC1(CC)NC(=S)N(c2cccc(F)c2)N1 | 8 µg/mL (≈ 31.6 µM) | –
CSC1=NC(C)(C)NN1c1ccc(Cl)cc1 | > 128 µg/mL | –
S=C1NC(c2ccccc2)NN1c1ccccc1 (stereo unspecified) | 64 µg/mL (≈ 251 µM) | –
CCC1(CC)NC(=S)N(c2ccc(I)cc2)N1 | 8 µg/mL (≈ 22.1 µM) | –
CCC1(CC)NC(=S)N(c2ccc(C(F)(F)F)cc2)N1 | > 128 µg/mL | –
CCC1(C)NC(=S)N(c2ccccc2)N1 (stereo unspecified) | 8 µg/mL (≈ 36.1 µM) | MIC (Acinetobacter baumannii [3]): 4 µg/mL (≈ 18.1 µM); MIC (Acinetobacter baumannii [4]): 8 µg/mL (≈ 36.1 µM); MIC (Acinetobacter baumannii [5]): 8 µg/mL (≈ 36.1 µM); MIC (Acinetobacter baumannii [7]): 8 µg/mL (≈ 36.1 µM); MIC (Acinetobacter baumannii [14]): 4 µg/mL (≈ 18.1 µM); MIC (Acinetobacter baumannii [16]): 4 µg/mL (≈ 18.1 µM)
CCC1(CC)NC(=S)N(c2ccc([N+](=O)[O-])cc2)N1 | > 128 µg/mL | –
CN1N(c2ccc(Cl)cc2)C(=S)NC1(C)C | > 128 µg/mL | –
CCC1(CC)NC(=S)N(c2ccc(Cl)c(Cl)c2)N1 | > 128 µg/mL | –
CCCC1(C)NC(=S)N(c2ccccc2)N1 (stereo unspecified) | 16 µg/mL (≈ 68 µM) | –
CCC1(CC)NC(=S)N(c2ccc(F)c(Cl)c2)N1 | 32 µg/mL (≈ 111 µM) | –
CCC1(CC)NC(=S)N(c2ccc(Br)cc2)N1 | 4 µg/mL (≈ 12.7 µM) | –
CC1(C)N=C(SCc2ccccc2)N(c2ccc(Cl)cc2)N1 | > 128 µg/mL | –
